Source: ChEMBL document CHEMBL4834434, “Discovery of Novel and Potent N-Methyl-d-aspartate Receptor Positive Allosteric Modulators with Antidepressant-like Activity in Rodent Models” (J Med Chem, 2021)
Calls of active or inactive are those of the source. The rule behind the calls is not given here.

Experiments:
[1] = Cytotoxicity against African green monkey Vero cells assessed as cell growth inhibition at 60 uM measured after 48 hrs by CCK8 assay relative to control; assay type: cell-based; details: chlorocebus sabaeus
HEK293 = assay: Cytotoxicity against human HEK293 cells assessed as cell growth inhibition measured after 48 hrs by CCK8 assay; assay type: cell-based; details: HEK293, 48 h
[2] = […] in ICR mouse assessed as change in behaviour at 30 mg/kg, po administered for 28 days; assay type: organism-based; details: in vivo, 672 h, time 28 day
[3] = […] in ICR mouse assessed as decrease in body weight at 30 mg/kg, po administered for 28 days; assay type: organism-based; details: in vivo, 672 h, time 28 day
[4] = Drug concentration in ICR mouse plasma at 3 mg/kg, iv measured at 2 hrs; assay type: ADME, organism-based
[5] = Half life in ICR mouse at 10 mg/kg, po measured up to 24 hrs by HPLC-MS/MS analysis; assay type: ADME, organism-based; details: in vivo
[6] = Cytotoxicity against mouse L929 cells assessed as cell growth inhibition at 120 uM measured after 48 hrs by CCK8 assay relative to control; assay type: cell-based
[7] = Cytotoxicity against African green monkey Vero cells assessed as cell growth inhibition at 120 uM measured after 48 hrs by CCK8 assay relative to control; assay type: cell-based; details: chlorocebus sabaeus
[8] = Ratio of drug concentration in brain to plasma in ICR mouse at 10 mg/kg, po measured at 2 hrs by LC-MS/MS analysis; assay type: ADME, organism-based; details: read-out: BPR
[9] = AUC (0 to t) in ICR mouse at 3 mg/kg, iv measured up to 24 hrs by HPLC-MS/MS analysis; assay type: ADME, organism-based; set-up: route intravenous, dose 3 mg/kg, time <=24; details: in vivo
[10] = Drug concentration in ICR mouse brain at 10 mg/kg, po measured at 0.5 hrs by LC-MS/MS analysis; assay type: ADME, organism-based; details: read-out: Ct
Glutamate NMDA receptor = assay: Positive allosteric modulation of C57BL/6 mouse NMDA receptor assessed as potentiation of NMDA-induced current in presence of saturating glutamate by patch-clamp method; assay type: tissue-based, Brain
[11] = Ratio of drug concentration in brain to plasma in ICR mouse at 3 mg/kg, iv measured at 0.5 hrs by LC-MS/MS analysis; assay type: ADME, organism-based; details: read-out: BPR
[12] = Ratio of drug concentration in brain to plasma in ICR mouse at 3 mg/kg, iv measured at 2 hrs by LC-MS/MS analysis; assay type: ADME, organism-based; details: read-out: BPR
[13] = Tmax in ICR mouse at 10 mg/kg, po measured up to 24 hrs by HPLC-MS/MS analysis; assay type: ADME, organism-based; details: in vivo
[14] = Drug concentration in ICR mouse brain at 3 mg/kg, iv measured at 2 hrs; assay type: ADME, organism-based; details: read-out: Ct
[15] = Cytotoxicity against human HEK293 cells assessed as cell growth inhibition at 60 uM measured after 48 hrs by CCK8 assay relative to control; assay type: cell-based
[16] = Clearance in ICR mouse at 3 mg/kg, iv measured up to 24 hrs by HPLC-MS/MS analysis; assay type: ADME, organism-based; details: in vivo
Mus musculus [17] = assay: Antidepressant activity in ICR mouse assessed as decrease in immobility time at 3 to 10 mg/kg, ip measured after 26 mins by forced swim test; assay type: functional, organism-based; details: dose 3-10 mg/kg
[18] = Cytotoxicity against human HEK293 cells assessed as cell growth inhibition at 120 uM measured after 48 hrs by CCK8 assay relative to control; assay type: cell-based
[19] = Brain to blood partition coefficient of the compound; assay type: physicochemical, tissue-based; details: read-out: logBB (converted)
Mus musculus [20] = assay: Antidepressant activity in ICR mouse assessed as decrease in immobility time at 30 mg/kg, ip measured after 26 mins by forced swim test; assay type: functional, organism-based
[21] = Drug concentration in ICR mouse brain at 3 mg/kg, iv measured at 0.5 hrs by LC-MS/MS analysis; assay type: ADME, organism-based; details: read-out: Ct
[22] = MRT in ICR mouse at 3 mg/kg, iv measured up to 24 hrs by HPLC-MS/MS analysis; assay type: ADME, organism-based; details: in vivo
Mus musculus [23] = assay: Antidepressant activity in ICR mouse aassessed as inhibition of apomorphine-induced climbing behaviour at 10 mg/kg, ip administered prior to APO challenge and measured after 30 mins; assay type: functional, organism-based
[24] = Effect on locomotor activity in ICR mouse assessed as hypolocomotion at 10 mg/kg, ip measured after 90 mins; assay type: ADME, organism-based; details: in vivo, 1.5 h
[25] = Volume of distribution at steady state in ICR mouse at 3 mg/kg, iv measured up to 24 hrs by HPLC-MS/MS analysis; assay type: ADME, organism-based; details: in vivo, read-out: Vdss
[26] = Acute toxicity in ip dosed ICR mouse assessed as lethal dose measured after 24 hrs; assay type: organism-based; details: in vivo
hERG (KCNH2) [27] = target: T1, hERG (KCNH2) (Homo sapiens, UniProt Q12809); assay: Inhibition of human ERG expressed in CHO cells at 30 uM with holding potential at -80 to -60 mV for 500s followed by raise in potential at +30 mV for 2 sec and subsequent repolarization to -60 mV for 2 sec by whole-cell patch clamp method relative to control; assay type: cell-based; details: CHO cells expressing human ERG
T1 sequence (Q12809 whole entry): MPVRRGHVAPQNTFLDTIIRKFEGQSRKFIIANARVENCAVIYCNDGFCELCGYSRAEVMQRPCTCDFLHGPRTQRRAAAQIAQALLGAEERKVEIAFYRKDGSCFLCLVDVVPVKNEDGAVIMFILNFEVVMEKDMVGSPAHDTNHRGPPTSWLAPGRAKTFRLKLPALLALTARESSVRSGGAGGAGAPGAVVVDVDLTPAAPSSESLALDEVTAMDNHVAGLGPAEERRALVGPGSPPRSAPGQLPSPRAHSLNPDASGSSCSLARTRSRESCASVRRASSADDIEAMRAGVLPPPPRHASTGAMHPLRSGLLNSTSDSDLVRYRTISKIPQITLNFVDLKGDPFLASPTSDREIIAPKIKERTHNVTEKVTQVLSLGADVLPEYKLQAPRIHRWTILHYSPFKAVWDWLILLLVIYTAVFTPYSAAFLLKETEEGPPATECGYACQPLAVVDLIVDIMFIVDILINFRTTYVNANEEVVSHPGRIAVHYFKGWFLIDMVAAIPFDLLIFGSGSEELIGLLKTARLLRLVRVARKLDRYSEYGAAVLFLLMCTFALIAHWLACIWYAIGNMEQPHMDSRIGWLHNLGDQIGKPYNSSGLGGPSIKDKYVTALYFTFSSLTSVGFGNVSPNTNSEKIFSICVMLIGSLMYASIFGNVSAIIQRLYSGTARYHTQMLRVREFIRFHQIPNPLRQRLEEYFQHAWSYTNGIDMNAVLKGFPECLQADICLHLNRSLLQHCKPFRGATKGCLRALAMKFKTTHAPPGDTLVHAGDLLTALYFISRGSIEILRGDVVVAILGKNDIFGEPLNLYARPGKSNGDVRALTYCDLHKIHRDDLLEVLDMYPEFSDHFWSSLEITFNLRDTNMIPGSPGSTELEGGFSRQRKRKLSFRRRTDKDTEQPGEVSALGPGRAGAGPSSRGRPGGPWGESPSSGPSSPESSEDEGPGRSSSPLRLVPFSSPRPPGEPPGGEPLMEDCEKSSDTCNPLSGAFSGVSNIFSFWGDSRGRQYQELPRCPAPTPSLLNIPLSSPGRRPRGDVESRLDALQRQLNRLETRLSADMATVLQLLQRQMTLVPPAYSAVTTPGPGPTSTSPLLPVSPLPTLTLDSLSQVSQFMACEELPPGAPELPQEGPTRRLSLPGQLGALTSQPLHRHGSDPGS

[28] = Drug concentration in ICR mouse plasma at 10 mg/kg, po measured at 2 hrs by LC-MS/MS analysis; assay type: ADME, organism-based
[29] = Ratio of drug concentration in brain to plasma in ICR mouse at 10 mg/kg, po measured at 0.5 hrs by LC-MS/MS analysis; assay type: ADME, organism-based; details: read-out: BPR
[30] = Cmax in ICR mouse at 10 mg/kg, po measured up to 24 hrs by HPLC-MS/MS analysis; assay type: ADME, organism-based; set-up: route oral, dose 10 mg/kg, time <=24; details: in vivo
[31] = Half life in ICR mouse at 3 mg/kg, iv measured up to 24 hrs by HPLC-MS/MS analysis; assay type: ADME, organism-based; details: in vivo
Vero = assay: Cytotoxicity against African green monkey Vero cells assessed as cell growth inhibition measured after 48 hrs by CCK8 assay; assay type: cell-based; details: Chlorocebus sabaeus
[32] = Drug concentration in ICR mouse plasma at 3 mg/kg, iv measured at 0.5 hrs by LC-MS/MS analysis; assay type: ADME, organism-based
L929 = assay: Cytotoxicity against mouse L929 cells assessed as cell growth inhibition measured after 48 hrs by CCK8 assay; assay type: cell-based; details: L929, 48 h
[33] = Drug concentration in ICR mouse plasma at 10 mg/kg, po measured at 0.5 hrs by LC-MS/MS analysis; assay type: ADME, organism-based
[34] = MRT in ICR mouse at 10 mg/kg, po measured up to 24 hrs by HPLC-MS/MS analysis; assay type: ADME, organism-based; details: in vivo
[35] = […] in ICR mouse assessed as body weight gain at 30 mg/kg, po administered for 28 days; assay type: organism-based; details: in vivo, 672 h, time 28 day
[36] = Effect on locomotor activity in ICR mouse assessed as hyperlocomotion at 10 mg/kg, ip measured after 90 mins; assay type: ADME, organism-based; details: in vivo, 1.5 h
[37] = AUC (0 to t) in ICR mouse at 10 mg/kg, po measured up to 24 hrs by HPLC-MS/MS analysis; assay type: ADME, organism-based; set-up: route oral, dose 10 mg/kg, time <=24; details: in vivo
[38] = Cytotoxicity against mouse L929 cells assessed as cell growth inhibition at 60 uM measured after 48 hrs by CCK8 assay relative to control; assay type: cell-based
[39] = Oral bioavailability in ICR mouse at 10 mg/kg measured up to 24 hrs by HPLC-MS/MS analysis; assay type: ADME, organism-based; details: in vivo
hERG (KCNH2) [40] = target: T1, hERG (KCNH2); assay: Inhibition of human ERG expressed in CHO cells at 100 uM with holding potential at -80 to -60 mV for 500s followed by raise in potential at +30 mV for 2 sec and subsequent repolarization to -60 mV for 2 sec by whole-cell patch clamp method relative to control; assay type: cell-based; details: CHO cells expressing human ERG
[41] = Drug concentration in ICR mouse brain at 10 mg/kg, po measured at 2 hrs by LC-MS/MS analysis; assay type: ADME, organism-based; details: read-out: Ct

Which results are given for O=C(Nc1cc(Cl)cc(Cl)c1)c1ccc(Cn2nc(C(F)(F)F)cc2C(F)(F)F)o1?
inhibition at 48 h, 60 µM [1]: 96.2%; IC50 (HEK293): 84.8 µM; Activity [2]: Non-Toxic; Activity [3]: Toxic; concentration at 2 h [4]: 304 ng/mL; half-life [5]: 5.7 h; inhibition at 48 h, 120 µM [6]: 90.6%; inhibition at 48 h, 120 µM [7]: 95.8%; Kp at 2 h [8]: 0.15; AUC(0-t) at 24 h [9]: 1750 ng·h/mL; concentration at 0.5 h [10]: 93.4 ng/mL; EC50 (Glutamate NMDA receptor): 12.5 µM; Kp at 0.5 h [11]: 0.14; Kp at 2 h [12]: 0.16; Tmax [13]: 2 h; concentration at 2 h [14]: 49 ng/mL; inhibition at 48 h, 60 µM [15]: 42%; clearance [16]: 30 mL/min/kg; Activity (Mus musculus [17]): Active; inhibition at 48 h, 120 µM [18]: 73.6%; Kp [19]: 3.98; Activity (Mus musculus [20]): Active; concentration at 0.5 h [21]: 73.9 ng/mL; MRT [22]: 3.4 h; Activity (Mus musculus [23]): inactive; Activity [24]: Non-Toxic; Vd [25]: 12.7 L/kg; LD50 at 24 h [26]: 1500 mg/kg; inhibition at 2 s, 30 µM (hERG (KCNH2) [27]): 49.1%; concentration at 2 h [28]: 989 ng/mL; Kp at 0.5 h [29]: 0.16; Cmax [30]: 989 ng/mL; half-life [31]: 5 h; IC50 (Vero): 23.2 µM; concentration at 0.5 h [32]: 506 ng/mL; IC50 (L929): 29.7 µM; concentration at 0.5 h [33]: 580 ng/mL; MRT [34]: 4.7 h; Activity [35]: Non-Toxic; Activity [36]: Non-Toxic; AUC(0-t) at 24 h [37]: 4220 ng·h/mL; inhibition at 48 h, 60 µM [38]: 84.3%; bioavailability [39]: 72.2%; inhibition at 2 s, 100 µM (hERG (KCNH2) [40]): 68.4%; concentration at 2 h [41]: 148 ng/mL
